# Reference: ChEMBL document CHEMBL3872214, “Synthesis and evaluation of in vivo antioxidant, in vitro antibacterial, MRSA and antifungal activity of novel substituted isatin N-(2,3,4,6-tetra-O-acetyl-β-d-glucopyranosyl)thiosemicarbazones” (Eur J Med Chem, 2016)
# What was measured:
# Assay type in all cases: functional
# Candida albicans = test: Antifungal activity against Candida albicans ATCC 7754 after 72 hrs by agar dilution method; conditions: ATCC 7754, 72 h
# [1] = Antifungal activity against Saccharomyces cerevisiae SH20 after 72 hrs by agar dilution method
# Aspergillus niger = test: Antifungal activity against Aspergillus niger 439 after 72 hrs by agar dilution method; conditions: Aspergillus niger, 439, 72 h
# Klebsiella aerogenes = test: Antibacterial activity against Enterobacter aerogenes ATCC 13048 after 18 to 20 hrs by two-fold microbroth dilution method
# Pseudomonas aeruginosa = test: Antibacterial activity against Pseudomonas aeruginosa […] after 18 to 20 hrs by two-fold microbroth dilution method
# Staphylococcus aureus [2] = test: Antibacterial activity against methicillin-resistant Staphylococcus aureus 198-2 after 18 to 20 hrs by two-fold microbroth dilution method
# Rattus norvegicus [3] = test: (§1) Antioxidant activity in CCL4-intoxicated Wistar albino rat assessed as liver cytosolic glutathione peroxidase activity per mg protein at 100 mg/kg, ip administered for 7 consecutive days after DL-alpha-tocopherol acetate treatment followed by CCL4 dosing measured after 24 hrs by H2O2 based spectrophotometric analysis (reference value: 0.28 +/- 0.01 U)
# Staphylococcus aureus [4] = test: Antibacterial activity against methicillin-resistant Staphylococcus aureus 198-3 after 18 to 20 hrs by two-fold microbroth dilution method
# [5] = system: Staphylococcus epidermidis; test: Antibacterial activity against Staphylococcus epidermidis ATCC 12228 after 18 to 20 hrs by two-fold microbroth dilution method
# [6] = Antifungal activity against Fusarium oxysporum M42 after 72 hrs by agar dilution method
# Rattus norvegicus [7] = test: as §1, with “superoxide dismutase” for “glutathione peroxidase”, “xanthine” for “H2O2”, “assay” for “spectrophotometric analysis”, “5.27” for “0.28”, “0.22” for “0.01”
# Staphylococcus aureus [8] = test: Antibacterial activity against Staphylococcus aureus ATCC 11632 after 18 to 20 hrs by two-fold microbroth dilution method
# Escherichia coli = test: Antibacterial activity against Escherichia coli ATCC 25922 after 18 to 20 hrs by two-fold microbroth dilution method
# Rattus norvegicus [9] = test: as §1, with “catalase” for “glutathione peroxidase”, “assay” for “spectrophotometric analysis”, “220.15” for “0.28”, “11.43” for “0.01”
# Staphylococcus aureus [10] = test: Antibacterial activity against methicillin-resistant Staphylococcus aureus 198-1 after 18 to 20 hrs by two-fold microbroth dilution method
# Bacillus subtilis = test: Antibacterial activity against Bacillus subtilis ATCC 11774 after 18 to 20 hrs by two-fold microbroth dilution method
# Klebsiella pneumoniae = test: Antibacterial activity against Klebsiella pneumoniae ATCC 4352 after 18 to 20 hrs by two-fold microbroth dilution method
Compound,MIC (Candida albicans),MIC [1],MIC (Aspergillus niger),MIC (Klebsiella aerogenes),MIC (Pseudomonas aeruginosa),MIC (Staphylococcus aureus [2]),Activity (Rattus norvegicus [3]),MIC (Staphylococcus aureus [4]),MIC [5],MIC [6],Activity (Rattus norvegicus [7]),MIC (Staphylococcus aureus [8]),MIC (Escherichia coli),Activity (Rattus norvegicus [9]),MIC (Staphylococcus aureus [10]),MIC (Bacillus subtilis),MIC (Klebsiella pneumoniae)
CC(=O)OC[C@H]1O[C@@H](NC(=S)N/N=C2/C(=O)Nc3ccc(F)cc32)[C@H](OC(C)=O)[C@@H](OC(C)=O)[C@@H]1OC(C)=O,6.25 µM,6.25 µM,12.5 µM,50 µM,50 µM,3.12 µM,0.39 U,1.56 µM,3.12 µM,12.5 µM,9.84 U,3.12 µM,50 µM,379.56 U,1.56 µM,3.12 µM,50 µM
CCCCN1C(=O)/C(=N/NC(=S)N[C@@H]2O[C@H](COC(C)=O)[C@@H](OC(C)=O)[C@H](OC(C)=O)[C@H]2OC(C)=O)c2ccccc21,100 µM,100 µM,100 µM,12.5 µM,12.5 µM,100 µM,0.93 U,100 µM,100 µM,100 µM,9.89 U,100 µM,12.5 µM,377.61 U,100 µM,100 µM,12.5 µM
CC(=O)OC[C@H]1O[C@@H](NC(=S)N/N=C2/C(=O)N(C)c3ccccc32)[C@H](OC(C)=O)[C@@H](OC(C)=O)[C@@H]1OC(C)=O,100 µM,100 µM,25 µM,12.5 µM,25 µM,100 µM,0.67 U,100 µM,100 µM,200 µM,9.52 U,100 µM,12.5 µM,350 U,100 µM,100 µM,12.5 µM
CC(=O)OC[C@H]1O[C@@H](NC(=S)N/N=C2/C(=O)Nc3c2cc(Cl)cc3[N+](=O)[O-])[C@H](OC(C)=O)[C@@H](OC(C)=O)[C@@H]1OC(C)=O,6.25 µM,25 µM,12.5 µM,25 µM,25 µM,6.25 µM,0.35 U,6.25 µM,6.25 µM,25 µM,10.57 U,6.25 µM,25 µM,389.53 U,6.25 µM,3.12 µM,25 µM
CC(=O)OC[C@H]1O[C@@H](NC(=S)N/N=C2/C(=O)Nc3c2cc(Br)cc3[N+](=O)[O-])[C@H](OC(C)=O)[C@@H](OC(C)=O)[C@@H]1OC(C)=O,12.5 µM,12.5 µM,12.5 µM,25 µM,25 µM,6.25 µM,0.37 U,6.25 µM,6.25 µM,6.25 µM,10.76 U,6.25 µM,25 µM,381.67 U,6.25 µM,3.12 µM,25 µM
CC(=O)OC[C@H]1O[C@@H](NC(=S)N/N=C2/C(=O)Nc3ccc(I)cc32)[C@H](OC(C)=O)[C@@H](OC(C)=O)[C@@H]1OC(C)=O,6.25 µM,6.25 µM,6.25 µM,50 µM,25 µM,6.25 µM,0.35 U,6.25 µM,6.25 µM,12.5 µM,10.85 U,6.25 µM,50 µM,399.75 U,6.25 µM,6.25 µM,25 µM
CC(=O)OC[C@H]1O[C@@H](NC(=S)N/N=C2/C(=O)Nc3ccc(Cl)cc32)[C@H](OC(C)=O)[C@@H](OC(C)=O)[C@@H]1OC(C)=O,12.5 µM,12.5 µM,12.5 µM,50 µM,50 µM,0.78 µM,0.31 U,0.78 µM,6.25 µM,12.5 µM,10.2 U,6.25 µM,50 µM,390.63 U,0.78 µM,6.25 µM,50 µM
CC(=O)OC[C@H]1O[C@@H](NC(=S)N/N=C2/C(=O)Nc3c(C)cccc32)[C@H](OC(C)=O)[C@@H](OC(C)=O)[C@@H]1OC(C)=O,100 µM,25 µM,100 µM,25 µM,25 µM,12.5 µM,1.69 U,12.5 µM,12.5 µM,25 µM,4.6 U,12.5 µM,25 µM,250.63 U,12.5 µM,25 µM,25 µM
